Consider 29 molecules from patent US20260226076A1, “FUSED MULTICYCLIC COMPOUNDS AND THEIR USE AS PARP1 INHIBITORS” (LAEKNA THERAPEUTICS SHANGHAI CO., LTD., priority 2022, published 2026).

Assay [1] relates to DLD1 BRCA2−/− cells. The assay is described as follows: Cell proliferation assay (DLD1 BRCA2−/−). Format: cell-based. As to conditions: at least 7 days, Cell-Titer Glo, read-out: DLD1 BRCA2−/− anti-proliferation assay. The protocol:
(§1) For PARPi sensitivity, exponentially growing MDA-MB-436 and DLD1 BRCA2^−/− cells were seed in 96 or 384-well plates at very low density with the goal of not splitting for at least 7 days (typically 0.3k-1.2k cells/well). Cells were plated on […] and treated with DMSO or increasing concentrations of PARP1 inhibitors on Day 0. At the end of the experiment, cell viability was estimated using Cell-Titer Glo (Promega).

The target of assay [2] is PARP1 (Homo sapiens, UniProt P09874). The assay is described as follows: PARP1-DNA enzymatic trapping assay. The conditions noted are these: 10 nM PARP1, 5 nM DNA probe, 2 mM NAD+, fluorescence polarization read at 30 minutes. Type of assay: biochemical. As for the experimental part:
Enzymatic trapping assay is to measure the dissociation process of PARP1 from fluorescein-labeled DNA during the enzymatic activity. Assay was conducted at a total 10 μL of reaction volume, including 10 nM PARP1 and 5 nM DNA probe in the binding buffer (50 mM Tris-HCl pH 8.0, 50 mM NaCl, 1 mM MgCl2, 0.1 mM EDTA, and 0.01% IGEPAL), and was commenced by adding a final concentration of 2 mM NAD+ substrate.
PARP1 Poly-ADP ribosylation (PARylation) inhibitory assay was conducted with compounds dissolved in DMSO at a starting concentration of 5 μM. Dissolved compounds were added to 384-well microplate and premixed with PARPI enzyme and DNA probe for 20 minutes incubation. Enzymatic reactions were started by adding NAD+ to mixture, and each well was read at 30 minutes by microplate reader (VICTOR Nivo®, PerkinElmer) to detect the fluorescence polarization signal at 480 nm excitation/530 nm dual emission.
All measured IC50 values were calculated using four parameters dose-response inhibition model in GraphPad Prism 8.0.2 (La Jolla, California, USA, www.graphpad.com).
(In general: Polarisation of emitted light reports the rotation of a fluorescent probe.)

Assay [3] deals with PARP2 (Homo sapiens, UniProt Q9UGN5). The assay is described as follows: PARP2-FL displacement assay. Format: binding. As to conditions: 20 nM PARP2, 3 nM PARPi-FL, 4 hours incubation, fluorescence polarization. As for the experimental part: A potent PARP inhibitor (PARPi-FL, Cat No. 6461, Tocris Bioscience) conjugated to BDY FL fluorophore was adopted to characterize the activity of PARP2 by measuring the displacement of binding of PARPi-FL to PARP2. Compounds to be tested were prepared at a concentration of 1-10 mM, and made a 3-fold serial dilution by 100% DMSO in a polypropylene plate (Bio-One small volume microplate, black, Cat No. 784076, Greiner). 100 nL of test compounds were dispensed into a 384-well polypropylene microplate and added 10 μL of reaction solution including premixed 20 nM PARP2 and 3 nM PARPi-FL. After 4 hours of incubation at room temperature, the fluorescence polarization signal at 480/30 nm excitation and 530/30 nm dual emission was measured by VICTOR Nivo® multimode plate reader (PerkinElmer). All of the measured IC50 values were calculated using four parameters dose-response inhibition model in GraphPad Prism 8.0.2 (La Jolla, California, USA, www.graphpad.com).

The subject of assay [4] is MDA-MB-436 cells. Description: Cell proliferation assay (MDA-MB-436). As to conditions: at least 7 days, Cell-Titer Glo, read-out: MDA-MB-436 anti-proliferation assay. Format: cell-based. As for the experimental part:
as §1

Setting [5] is: Homo sapiens, MDA-MB-436, 168 h.

Read-outs that look alike come from different tables or passages of the source.

Chain of PARP1 (P09874 whole entry): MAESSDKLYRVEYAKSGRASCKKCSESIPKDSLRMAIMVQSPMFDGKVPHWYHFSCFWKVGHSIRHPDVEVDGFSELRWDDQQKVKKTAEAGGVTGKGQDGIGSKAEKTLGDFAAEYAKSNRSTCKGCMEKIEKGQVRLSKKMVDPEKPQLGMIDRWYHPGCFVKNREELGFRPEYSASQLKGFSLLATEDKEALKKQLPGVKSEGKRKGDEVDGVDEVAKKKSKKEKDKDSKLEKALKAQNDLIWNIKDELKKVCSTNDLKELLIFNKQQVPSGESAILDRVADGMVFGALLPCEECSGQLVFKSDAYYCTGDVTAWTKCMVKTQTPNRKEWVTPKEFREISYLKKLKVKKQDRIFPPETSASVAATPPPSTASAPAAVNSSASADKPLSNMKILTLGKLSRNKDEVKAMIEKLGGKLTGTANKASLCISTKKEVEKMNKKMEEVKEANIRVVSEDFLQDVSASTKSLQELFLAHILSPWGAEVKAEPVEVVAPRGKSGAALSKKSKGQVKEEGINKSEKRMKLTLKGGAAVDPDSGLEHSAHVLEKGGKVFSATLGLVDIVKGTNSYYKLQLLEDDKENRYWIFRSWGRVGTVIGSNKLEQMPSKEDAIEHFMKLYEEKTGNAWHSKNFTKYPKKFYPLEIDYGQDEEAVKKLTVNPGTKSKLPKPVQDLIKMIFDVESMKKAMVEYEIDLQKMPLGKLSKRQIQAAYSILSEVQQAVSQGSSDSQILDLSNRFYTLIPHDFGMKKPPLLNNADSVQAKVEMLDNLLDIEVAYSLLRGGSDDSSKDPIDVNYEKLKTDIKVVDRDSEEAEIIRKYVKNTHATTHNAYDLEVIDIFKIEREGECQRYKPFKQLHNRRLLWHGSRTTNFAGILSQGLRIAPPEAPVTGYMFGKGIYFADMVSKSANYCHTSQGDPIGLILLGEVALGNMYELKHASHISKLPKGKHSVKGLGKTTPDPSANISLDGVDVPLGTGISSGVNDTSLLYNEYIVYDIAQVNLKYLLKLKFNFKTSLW
Chain of PARP2 (Q9UGN5 whole entry): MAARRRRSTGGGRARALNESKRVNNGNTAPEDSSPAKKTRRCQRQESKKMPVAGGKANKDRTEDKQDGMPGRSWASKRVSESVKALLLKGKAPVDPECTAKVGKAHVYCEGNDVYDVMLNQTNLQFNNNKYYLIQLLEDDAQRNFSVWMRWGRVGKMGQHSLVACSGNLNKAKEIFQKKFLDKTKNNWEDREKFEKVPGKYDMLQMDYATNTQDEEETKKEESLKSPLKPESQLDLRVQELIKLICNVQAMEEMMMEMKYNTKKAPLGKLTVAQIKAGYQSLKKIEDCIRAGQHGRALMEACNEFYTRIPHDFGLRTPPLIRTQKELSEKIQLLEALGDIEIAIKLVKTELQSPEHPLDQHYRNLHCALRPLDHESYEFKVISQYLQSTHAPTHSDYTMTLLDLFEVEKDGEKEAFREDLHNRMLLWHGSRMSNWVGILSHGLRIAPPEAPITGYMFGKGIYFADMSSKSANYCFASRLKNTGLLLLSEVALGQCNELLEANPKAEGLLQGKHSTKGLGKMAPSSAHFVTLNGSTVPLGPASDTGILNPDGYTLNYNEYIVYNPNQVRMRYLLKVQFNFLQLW

`O=C(NC1COC1)c1ccc(N2C[C@H]3CN(Cc4ccc5c6c(c(=O)[nH]c5c4)COCC6)C[C@@H]3C2)c(F)n1` [Compound 69]: the IC50 in assay [1] (Homo sapiens, DLD-1, 168 h) was found to be 0.81 nM; in assay [2], 2.92 nM; in assay [3], 676 nM; in assay [4] (setting [5]), 0.24 nM.

With `CCNC(=O)c1ccc(N2C[C@H]3CN(Cc4cnc5c6c(c(=O)[nH]c5c4)COCC6)C[C@@H]3C2)c(F)n1` [Compound 76], the IC50 was determined as 0.7 nM in assay [1] (Homo sapiens, DLD-1, 168 h); 5.3 nM in assay [2]; 574 nM in assay [3]; 0.5 nM in assay [4] (setting [5]).

As for `CNC(=O)c1ccc(N2C[C@H]3CN(Cc4ccc5c6c(c(=O)[nH]c5c4)COCC6)C[C@@H]3C2)cn1` [Compound 65], the IC50 was 0.63 nM in assay [1] (Homo sapiens, DLD-1, 168 h); 6.22 nM in assay [2]; 334 nM in assay [3]; 0.36 nM in assay [4] (setting [5]).

Turning to `CCc1cc2ncc(CN3C[C@@H]4CN(c5ccc(C(=O)NC)nc5)C[C@H]4C3)cc2[nH]c1=O` [Compound 15], the IC50 in assay [1] (Homo sapiens, DLD-1, 168 h) was 0.33 nM; in assay [2] it was 6.25 nM; in assay [3], 1270 nM; in assay [4] (setting [5]), 0.37 nM.

For the molecule `CNC(=O)c1ccc(N2C[C@H]3CN(Cc4cc5[nH]c(=O)c6c(c5cn4)CCOC6)C[C@@H]3C2)c(F)n1` [Compound 77], the IC50 in assay [1] (Homo sapiens, DLD-1, 168 h) was found to be 2.7 nM; in assay [2], 7.73 nM; in assay [3] it was 1630 nM; in assay [4] (setting [5]), 0.41 nM.

For `CO[C@H]1C[C@@H](NC(=O)c2ccc(N3C[C@H]4CN(Cc5ccc6c7c(c(=O)[nH]c6c5)COCC7)C[C@@H]4C3)c(F)n2)C1` [Compound 70], the IC50 in assay [1] (Homo sapiens, DLD-1, 168 h) was 0.7 nM; in assay [2], 4.2 nM; in assay [3], 614 nM; in assay [4] (setting [5]), 0.39 nM.

`O=C(NC1COC1)c1ccc(N2C[C@H]3CN(Cc4cnc5c6c(c(=O)[nH]c5c4)CCCC6)C[C@@H]3C2)c(F)n1` [Compound 83]: the IC50 in assay [1] (Homo sapiens, DLD-1, 168 h) amounted to 0.54 nM; in assay [2] it was 7.66 nM; in assay [3], 147 nM; in assay [4] (setting [5]) it was 0.54 nM.

With `CO[C@H]1C[C@@H](NC(=O)c2ccc(N3C[C@H]4CN(Cc5cnc6c7c(c(=O)[nH]c6c5)COCC7)C[C@@H]4C3)cn2)C1` [Compound 75], the IC50 in assay [1] (Homo sapiens, DLD-1, 168 h) was determined as 10.2 nM; in assay [2], 8.6 nM; in assay [4] (setting [5]), 0.93 nM.

Take `CCc1cc2ncc(CN3C[C@H]4CN(c5ccc(C(=O)NC)nc5)C[C@@H]4C3)cc2[nH]c1=O` (racemic) [Compound 2]: the values for the IC50 in assay [1], in assay [2] and in assay [4] were 1.98 nM, 10.7 nM and 0.4 nM, respectively.

Take `CNC(=O)c1ccc(N2C[C@H]3CN(Cc4cc5[nH]c(=O)c6c(c5cn4)COC6)C[C@@H]3C2)c(F)n1` [Compound 63]: the IC50 turned out to be 141 nM in assay [1] (Homo sapiens, DLD-1, 168 h); 101 nM in assay [2]; 7.29 nM in assay [4] (setting [5]).

Regarding `COCCNC(=O)c1ccc(N2C[C@H]3CN(Cc4ccc5c6c(c(=O)[nH]c5c4)COCC6)C[C@@H]3C2)c(F)n1` [Compound 67], the IC50 in assay [1] (Homo sapiens, DLD-1, 168 h) worked out at 2.16 nM; in assay [2] it was 10.4 nM; in assay [4] (setting [5]) it was 0.64 nM.

Consider `CCC1Oc2ncc(CN3C[C@H]4CN(c5ccc(C(=O)NC6CC6)nc5)C[C@@H]4C3)cc2NC1=O` (mixture of isomers) [Compound 16], for which the IC50 in assay [1] (Homo sapiens, DLD-1, 168 h) was > 500 nM; in assay [2], > 500 nM; in assay [4] (setting [5]), > 500 nM.

With `CNC(=O)c1ccc(N2C[C@@H]3CN(Cc4ccc5c(c4)[nH]c(=O)n4ccnc54)C[C@H]3C2)cn1` (racemic) [Compound 13], the IC50 in assay [1] (Homo sapiens, DLD-1, 168 h) is 10.6 nM; in assay [2], 46.3 nM; in assay [4] (setting [5]), 31.6 nM.

Take `Cc1cc2ncc(CN3C[C@@H]4CN(c5ccc(C(=O)NC6CC6)nc5F)C[C@H]4C3)cc2[nH]c1=O` [Compound 30]: the IC50 came to 0.45 nM in assay [1] (Homo sapiens, DLD-1, 168 h); 8.09 nM in assay [2]; 0.37 nM in assay [4] (setting [5]).

Regarding `COCCNC(=O)c1ccc(N2C[C@H]3CN(Cc4ccc5c6c(c(=O)[nH]c5c4)COCC6)C[C@@H]3C2)cn1` [Compound 68], the IC50 in assay [1] (Homo sapiens, DLD-1, 168 h) is 12.3 nM; in assay [2], 14.6 nM; in assay [4] (setting [5]), 0.6 nM.

As for `CNC(=O)c1ccc(N2C[C@@H]3CN(Cc4ccc5nc(C)c(=O)[nH]c5c4F)C[C@H]3C2)c(F)n1` [Compound 11], the IC50 in assay [1] (Homo sapiens, DLD-1, 168 h) was > 500 nM; in assay [2] it was 323 nM; in assay [4] (setting [5]), > 500 nM.

As to `O=C(NC1COC1)c1ccc(N2C[C@H]3CN(Cc4cc5[nH]c(=O)c6c(c5cn4)CCC6)C[C@@H]3C2)c(F)n1` [Compound 59], the IC50 in assay [1] (Homo sapiens, DLD-1, 168 h) stood at 1.35 nM; in assay [2], 5.17 nM; in assay [4] (setting [5]), 0.37 nM.

As for `CCC1Oc2ncc(CN3C[C@H]4CN(c5ccc(C(=O)NC)nc5F)C[C@@H]4C3)cc2NC1=O` (mixture of isomers) [Compound 8], the IC50 came to 13.9 nM in assay [1] (Homo sapiens, DLD-1, 168 h); 47.3 nM in assay [2]; 5.13 nM in assay [4] (setting [5]).

Consider `CNC(=O)c1ccc(N2C[C@H]3CN(Cc4ccc5nc(C)c(=O)[nH]c5c4)C[C@@H]3C2)c(F)n1` [Compound 31], for which the IC50 was determined as 1.49 nM in assay [1] (Homo sapiens, DLD-1, 168 h); 8.35 nM in assay [2]; 0.98 nM in assay [4] (setting [5]).

For the molecule `CNC(=O)c1ccc(N2C[C@@H]3CN(Cc4cnc5c(c4)NC(=O)[C@@H]4CCCN54)C[C@H]3C2)c(F)n1` [Compound 23], the IC50 was found to be 34.9 nM in assay [1] (Homo sapiens, DLD-1, 168 h); 31.1 nM in assay [2]; 20.2 nM in assay [4] (setting [5]).

On to `CNC(=O)c1ccc(N2C[C@H]3CN(Cc4cnc5c6c(c(=O)[nH]c5c4)CCC6)C[C@@H]3C2)cn1` [Compound 47], for which the IC50 in assay [1] (Homo sapiens, DLD-1, 168 h) turned out to be 0.77 nM; in assay [2], 9.42 nM; in assay [4] (setting [5]), 1.1 nM.

With `CO[C@H]1C[C@@H](NC(=O)c2ccc(N3C[C@H]4CN(Cc5ccc6c7c(c(=O)[nH]c6c5)OCCC7)C[C@@H]4C3)c(F)n2)C1` [Compound 90], the IC50 is 8.3 nM in assay [1] (Homo sapiens, DLD-1, 168 h); 5.16 nM in assay [2]; 1.74 nM in assay [4] (setting [5]).

Regarding `CCc1nc2ncc(CN3C[C@@H]4CN(c5ccc(C(=O)NC)nc5F)C[C@H]4C3)cc2[nH]c1=O` [Compound 37], the IC50 is 5.98 nM in assay [1] (Homo sapiens, DLD-1, 168 h); 13.5 nM in assay [2]; 4.63 nM in assay [4] (setting [5]).

For the molecule `CNC(=O)c1ccc(N2C[C@H]3CN(Cc4cnc5cc(OC)c(=O)[nH]c5c4)C[C@@H]3C2)c(F)n1` [Compound 33], the IC50 turned out to be 4.13 nM in assay [1] (Homo sapiens, DLD-1, 168 h); 7.81 nM in assay [2]; 2.48 nM in assay [4] (setting [5]).

For the molecule `CCc1cc2ncc(CN3C[C@H]4CN(c5ccc(C(=O)NC)nc5F)C[C@@H]4C3)cc2[nH]c1=O` [Compound 28], the IC50 in assay [1] came to 5.02 nM; in assay [2], 9.73 nM; in assay [4], 3.93 nM.

Consider `CNC(=O)c1ccc(N2C[C@@H]3CN(Cc4cnc5c(c4)NC(=O)[C@@H]4CCCN54)C[C@H]3C2)cn1` (racemic) [Compound 7], for which the IC50 is 4.63 nM in assay [1] (Homo sapiens, DLD-1, 168 h); 24.8 nM in assay [2]; 2.59 nM in assay [4] (setting [5]).

In the case of `CNC(=O)c1ccc(N2C[C@H]3CN(Cc4cnc5cc(C)c(=O)[nH]c5c4)C[C@@H]3C2)c(C)n1` [Compound 25], the IC50 in assay [1] (Homo sapiens, DLD-1, 168 h) came out at 7.49 nM; in assay [2], 20.5 nM; in assay [4] (setting [5]), 5.06 nM.

As to `CNC(=O)c1ccc(N2C[C@H]3CN(Cc4cc5[nH]c(=O)c(C)cc5cn4)C[C@@H]3C2)c(F)n1` [Compound 36], the IC50 turned out to be 1.51 nM in assay [1] (Homo sapiens, DLD-1, 168 h); 8.44 nM in assay [2]; 2.08 nM in assay [4] (setting [5]).

Take `CNC(=O)c1ccc(N2C[C@@H]3CN(Cc4ccc5nc(C)c(=O)[nH]c5c4F)C[C@H]3C2)c(F)n1` (racemic) [Compound 3]: the IC50 in assay [1] (Homo sapiens, DLD-1, 168 h) was determined as 45.3 nM; in assay [2] it was 41.1 nM; in assay [4] (setting [5]), 15.7 nM.
